Results published in patent US9452980B2, “Substituted benzamides” (Hoffmann-La Roche Inc., priority 2009, dated 2016).
Structures can show the parent of a compound that is named as a salt. Where two headings read alike, the source gives them in different places.

How the values were obtained:
rat TAAR1 = rat TAAR1 (Rattus norvegicus (Rat), UniProt Q923Y9); assay: Radioligand binding assay on rat TAAR1; details: read-out: Ki (μM) rat
Method: (§1) For the construction of expression plasmids the coding sequences of human, rat and mouse TAAR1 were amplified from genomic DNA essentially as described by Lindemann et al.. The Expand High Fidelity PCR System (Roche Diagnostics) was used with 1.5 mM Mg^2+ and purified PCR products were cloned into pCR2.1-TOPO cloning vector (Invitrogen) following the instructions of the manufacturer. PCR products were subcloned into the pIRESneo2 vector (BD Clontech, Palo Alto, Calif.), and expression vectors were sequence verified before introduction in cell lines.
(§2) HEK293 cells (ATCC #CRL-1573) were cultured essentially as described by Lindemann et al. (2005). For the generation of stably transfected cell lines HEK293 cells were transfected with the pIRESneo2 expression plasmids containing the TAAR coding sequences (described above) with Lipofectamine 2000 (Invitrogen) according to the instructions of the manufacturer, and 24 hrs post transfection the culture medium was supplemented with 1 mg/ml G418 (Sigma, Buchs, Switzerland). After a culture period of about 10 d clones were isolated, expanded and tested for responsiveness to trace amines (all compounds purchased from Sigma) with the cAMP Biotrak Enzyme immunoassay (EIA) System (Amersham) following the non-acetylation EIA procedure provided by the manufacturer.
Radioligand Binding Assay on Rat TAAR1
(§3) Membrane Preparation and Radioligand Binding.
(§4) HEK-293 cells stably expressing rat TAAR1 were maintained at 37° C. and 5% CO2 in DMEM high glucose medium, containing fetal calf serum (10%, heat inactivated for 30 min at 56° C.), penicillin/streptomycin (1%), and 375 μg/ml geneticin (Gibco). Cells were released from culture flasks using trypsin/EDTA, harvested, washed twice with ice-cold PBS (without Ca^2+ and Mg^2+), pelleted at 1,000 rpm for 5 min at 4° C., frozen and stored at −80° C. Frozen pellets were suspended in 20 ml HEPES-NaOH (20 mM, pH 7.4) containing 10 mM EDTA and homogenized with a Polytron (PT 6000, Kinematica) at 14,000 rpm for 20 s. The homogenate was centrifuged at 48,000×g for 30 min at 4° C. Subsequently, the supernatant was removed and discarded, and the pellet resuspended in 20 ml HEPES-NaOH (20 mM, pH 7.4) containing 0.1 mM EDTA using the Polytron (20 s at 14,000 rpm). This procedure was repeated and the final pellet resuspended in HEPES-NaOH containing 0.1 mM EDTA and homogenized using the Polytron. Typically, aliquots of 2 ml membrane portions were stored at −80° C. With each new membrane batch the dissociation constant (Kd) was determined via a saturation curve. […] Nonspecific binding was defined as the amount of ^3[H]—(S)-4-[(ethyl-phenyl-amino)-methyl]-4,5-dihydro-oxazol-2-ylamine bound in the presence of 10 μM unlabeled ligand. All compounds were tested at a broad range of concentrations (10 pM to 10 μM) in duplicates. […] The 96 deep well plates were incubated for 1 hr at 4° C. Incubations were terminated by rapid filtration through Unifilter-96 plates (Packard Instrument Company) and glass filters GF/C (Perkin Elmer) presoaked for 1 hr in polyethylenimine (0.3%) and washed 3 times with 1 ml of cold binding buffer. After addition of 45 μl of Microscint 40 (PerkinElmer) the Unifilter-96 plate was sealed and after 1 hr the ratioactivity counted using a TopCount Microplate Scintillation Counter (Packard Instrument Company).

mouse TAAR1 = mouse TAAR1 (Mus musculus (Mouse), UniProt Q923Y8); assay: Radioligand binding assay on mouse TAAR1; details: read-out: Ki (μM) mouse
Method: as §1, §2
Radioligand Binding Assay on Mouse TAAR1
as §3
as §4, with “expressing mouse” for “expressing rat”

[1] = rat TAAR1, HEK-293 membranes, second value of cell mouse/rat
[2] = mouse TAAR1, HEK-293 membranes, first value of cell mouse/rat

Sequence of rat TAAR1 (Q923Y9 whole entry): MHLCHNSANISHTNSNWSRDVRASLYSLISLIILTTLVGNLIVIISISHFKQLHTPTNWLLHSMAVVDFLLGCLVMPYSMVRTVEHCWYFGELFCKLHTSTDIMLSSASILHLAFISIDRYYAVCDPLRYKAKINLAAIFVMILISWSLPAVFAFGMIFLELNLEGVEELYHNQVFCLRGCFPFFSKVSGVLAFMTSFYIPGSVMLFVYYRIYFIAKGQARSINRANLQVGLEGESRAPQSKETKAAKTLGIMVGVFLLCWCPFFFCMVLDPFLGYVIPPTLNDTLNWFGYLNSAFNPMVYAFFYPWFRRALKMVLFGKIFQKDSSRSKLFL
Sequence of mouse TAAR1 (Q923Y8 whole entry): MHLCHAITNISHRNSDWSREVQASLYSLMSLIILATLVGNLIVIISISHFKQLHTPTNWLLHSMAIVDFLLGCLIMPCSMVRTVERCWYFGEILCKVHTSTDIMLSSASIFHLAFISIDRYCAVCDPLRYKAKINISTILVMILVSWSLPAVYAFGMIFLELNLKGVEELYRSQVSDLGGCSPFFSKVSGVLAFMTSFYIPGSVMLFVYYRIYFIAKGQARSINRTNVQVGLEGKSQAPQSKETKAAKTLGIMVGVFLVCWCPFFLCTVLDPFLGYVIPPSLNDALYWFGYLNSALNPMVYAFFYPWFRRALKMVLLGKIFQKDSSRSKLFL

SMILES | Ki (rat TAAR1; [1]) [µM] | Ki (mouse TAAR1; [2]) [µM] | Ki (rat TAAR1) [µM] | Ki (mouse TAAR1) [µM]
O=C(Nc1ccc(C2CCNC2)cc1)OC1CCC(F)(F)CC1 (racemic) [Example 45, (RS)-(4-Pyrrolidin-3-yl-phenyl)-carbamic acid 4,4-difluoro-cyclohexyl ester] | 0.0077 | 0.0131 | – | –
CCOc1ccc(C(=O)Nc2ccc(C3CCNC3)cc2)cc1 (racemic) [Example 52, (RS)-4-Ethoxy-N-(4-pyrrolidin-3-yl-phenyl)-benzamide hydrochloride] | 0.0109 | 0.0017 | – | –
C#Cc1ccc(C(=O)Nc2ccc(C3CCNC3)cc2)cc1 (racemic) [Example 54, (RS)-4-Ethynyl-N-(4-pyrrolidin-3-yl-phenyl)-benzamide hydrochloride] | – | 0.0021 | 0.0152 | –
N#Cc1ccc(C(=O)Nc2ccc(C3CCNC3)cc2)cc1 (racemic) [Example 55, (RS)-4-Cyano-N-(4-pyrrolidin-3-yl-phenyl)-benzamide hydrochloride] | 0.0745 | – | – | 0.0048
O=C(Nc1ccc([C@@H]2CNC[C@H]2O)cc1)c1ccc(Cl)cc1 (racemic) [Example 63, 4-Chloro-N-[4-((3RS,4SR)-4-hydroxy-pyrrolidin-3-yl)-phenyl]-benzamide hydrochloride] | 0.174 | 0.0837 | – | –
O=C(Nc1ccc([C@@H]2CNC[C@@H]2F)cc1)c1ccc(Cl)cc1 (racemic) [Example 69, 4-Chloro-N-[4-((3RS,4RS)-4-fluoro-pyrrolidin-3-yl)-phenyl]-benzamide hydrochloride] | 0.023 | 0.0048 | – | –
O=C(Nc1cccc(C2CNCCO2)c1)c1ccc(Cl)cc1 (racemic) [Example 72, (RS)-4-Chloro-N-(3-morpholin-2-yl-phenyl)-benzamide hydrochloride] | 0.107 | 0.507 | – | –
O=C(Nc1ccc(C2CCCNC2)cc1)c1ccc(Cl)nc1 (racemic) [Example 74, (RS)-6-Chloro-N-(4-piperidin-3-yl-phenyl)-nicotinamide hydrochloride] | 0.0672 | 0.0049 | – | –
O=C(Nc1ccc(C2CCNC2)cc1)c1ncc(F)cc1F (racemic) [Example 75, (RS)-3,5-Difluoro-pyridine-2-carboxylic acid (4-pyrrolidin-3-yl-phenyl)-amide hydrochloride] | 1.48 | 0.0255 | – | –
O=C(Nc1ccc(C2CCCNC2)cc1)c1ccc(Cl)cn1 (racemic) [Example 78, (RS)-5-Chloro-pyridine-2-carboxylic acid (4-piperidin-3-yl-phenyl)-amide hydrochloride] | 0.0466 | 0.0067 | – | –
O=C(Nc1ccc(C2CCCNC2)cc1)Nc1ccc(Cl)nc1 (racemic) [Example 79, (RS)-1-(6-Chloro-pyridin-3-yl)-3-(4-piperidin-3-yl-phenyl)-urea hydrochloride] | 0.0924 | 0.0075 | – | –

Second part, led by results:

Ki (rat TAAR1; [1]) [µM] | Ki (mouse TAAR1; [2]) [µM] | SMILES | Ki (rat TAAR1) [µM] | Ki (mouse TAAR1) [µM]
0.0048 | 0.0019 | O=C(Nc1ccc(C2CCNC2)cc1)OCc1ccc(F)cc1 (racemic) [Example 47, (RS)-(4-Pyrrolidin-3-yl-phenyl)-carbamic acid 4-fluoro-benzyl ester hydrochloride] | – | –
0.0053 | 0.0016 | CCCc1ccc(C(=O)Nc2ccc(C3CCNC3)cc2)cc1 (racemic) [Example 53, (RS)-4-Propyl-N-(4-pyrrolidin-3-yl-phenyl)-benzamide hydrochloride] | – | –
0.0018 | 0.0008 | O=C(Nc1ccc(C2CCNC2)cc1)c1ccc(Cl)c(Cl)c1 (racemic) [Example 56, (RS)-3,4-Dichloro-N-(4-pyrrolidin-3-yl-phenyl)-benzamide hydrochloride] | – | –
0.0022 | 0.0007 | O=C(Nc1ccc(C2CCCNC2)cc1)c1ccc(Cl)cc1 (racemic) [Example 58, (RS)-4-Chloro-N-(4-piperidin-3-yl-phenyl)-benzamide hydrochloride] | – | –
0.0457 | 2.83 | COC(C(=O)Nc1ccc(C2CCNC2)cc1)c1ccc(Cl)cc1 (racemic) [Example 60, (RS)-2-(4-Chloro-phenyl)-2-methoxy-N—((RS)-4-pyrrolidin-3-yl-phenyl)-acetamide] | – | –
0.0033 | 0.0172 | CC(C(=O)Nc1ccc(C2CCNC2)cc1)c1cccc(C(F)(F)F)c1 (racemic) [Example 61, (RS)—N—((RS)-4-Pyrrolidin-3-yl-phenyl)-2-(3-trifluoromethyl-phenyl)-propionamide] | – | –
0.0215 | 0.124 | CC(C(=O)Nc1ccc(C2CCNC2)cc1)c1cccc(C(=O)c2ccccc2)c1 (racemic) [Example 64, (RS)-2-(3-Benzoyl-phenyl)-N—((RS)-4-pyrrolidin-3-yl-phenyl)-propionamide] | – | –
0.352 | 0.125 | COc1cccc(CC(=O)Nc2ccc(C3CCNC3)cc2)c1 (racemic) [Example 65, (RS)-2-(3-Methoxy-phenyl)-N-(4-pyrrolidin-3-yl-phenyl)-acetamide hydrochloride] | – | –
0.645 | 0.137 | N#Cc1cccc(CC(=O)Nc2ccc(C3CCNC3)cc2)c1 (racemic) [Example 66, (RS)-2-(3-Cyano-phenyl)-N-(4-pyrrolidin-3-yl-phenyl)-acetamide] | – | –
0.102 | 0.147 | CC(C(=O)Nc1ccc(C2CCNC2)cc1)c1cccc(C#N)c1 (racemic) [Example 68, (RS)-2-(3-Cyano-phenyl)-N—((RS)-4-pyrrolidin-3-yl-phenyl)-propionamide] | – | –
0.0257 | 0.0056 | O=C(Nc1ccc(C2CCNC2)cc1)c1ccc(-n2cccn2)nc1 (racemic) [Example 73, (RS)-6-Pyrazol-1-yl-N-(4-pyrrolidin-3-yl-phenyl)-nicotinamide hydrochloride] | – | –
0.296 | 0.136 | O=C(Nc1ccc(C2CCNC2)cc1)c1nc2ccccc2[nH]1 (racemic) [Example 76, (RS)-1H-Benzoimidazole-2-carboxylic acid (4-pyrrolidin-3-yl-phenyl)-amide hydrochloride] | – | –
0.0238 | 0.0017 | O=C(Nc1ccc(C2CCNC2)cc1)c1ccc(Cl)cc1F (racemic) [Example 77, (RS)-4-Chloro-2-fluoro-N-(4-pyrrolidin-3-yl-phenyl)-benzamide hydrochloride] | – | –
0.0124 | 0.0227 | O=C(Nc1ccc(C2CCNC2)cc1)Nc1cccc2cccnc12 (racemic) [Example 81, (RS)-1-(4-Pyrrolidin-3-yl-phenyl)-3-quinolin-8-yl-urea] | – | –
